Earlier results in patent US20230025452A1, “ANTICANCER COMBINATION THERAPY” (Boehringer Ingelheim International GmbH, priority 2017, published 2023).

Assays:
[1] = test system: solid tumor xenograft models and acute lymphoblastic leukemia (ALL) xenograft models; conditions: Carol et al. 2013
[2] = test system: human acute myeloid leukemia (AML) and human prostate tumor xenograft models harboring p53 wild-type; conditions: Tovar et al. 2013

For `CCOc1cc(C(C)(C)C)ccc1C1=N[C@@](C)(c2ccc(Cl)cc2)[C@@](C)(c2ccc(Cl)cc2)N1C(=O)N1CCN(CCCS(C)(=O)=O)CC1` [RG-7112], the efficacy ([1]; ALL xenograft models with MLL rearrangement) is given as “particularly efficacious”, the tumor growth inhibition ([1]; solid tumor xenograft models) is given as “induced tumor growth inhibition” and the “antiproliferative and proapoptotic activity” value [2] is given as “antiproliferative and proapoptotic activity”.
